Assay results: patent publication US20240181125A1, “COMPOSITIONS AND METHODS FOR SCARLESS WOUND HEALING IN DIABETES” (Washington University, priority 2022, published 2024)
Entries after “also recorded” stand apart in the source; their conditions may differ. Bridge positions count the residues as written; N and C are the ends. Peptide text beside a SMILES is read from it. * marks the point of attachment. FITC = O=C1OC2(c3ccc(O)cc3Oc3cc(O)ccc32)c2ccc(NC(=S)*)cc21

How the values were obtained:
[1] = tested on: diabetic wounds of db/db mice; assay: Example 5 wound dressings on full-thickness excisional diabetic wounds; format: in vivo
Experimental: After three days post-wound assay on db/db mice, the wounded tissues were collected and lysed. The protein concentrations were quantified by Bradford assay. The samples were tested using a Proteome Profiler Mouse Angiogenesis Array kit (R&D Systems) and a Mouse Cytokine Array kit (R&D Systems). The intensities of the dots on the membranes in the kits were quantified using Image Lab software. Eight-week-old, female db/db mice were used. Carprofen tablets (1/4 tablet per mouse) were given orally 48 hours before surgery and continued for seven days after the surgery as an analgesic. One day before surgery, the blood glucose levels of the mice were tested with a glucometer to confirm they were above 300 mg/dL. The mice were anesthetized by isoflurane inhalation, and the dorsal surface was thoroughly shaved. Then a 5-mm diameter biopsy punch (VWR) was used to create two symmetric full-thickness wounds on the back of each mouse. Next, 100 μL of liquid wound dressing, with or without 50 μg/mL of PTβ[…], was applied topically to the wound sites. The mice were observed every other day, and digital photographs of the wounds, with a ruler at the side, were acquired by a digital camera. Wound sizes were calculated using Image J. For in vitro tests, protein lysates were collected from HDFs. Pre-cooled cell scrapers were used to detach the cells, and the cells were re-suspended in RIPA lysis buffer with the inhibitor cocktail. For in vivo tests, wound skin tissues were washed three times with pre-cooled DPBS, dissected into small pieces, and re-suspended in RIPA lysis buffer containing protease and phosphatase inhibitors. […] After centrifugation at 12,000 g for 20 min, the supernatants were collected, and protein concentrations were measured using a Bradford protein assay kit (Bio-rad). […] Immunoblots were then washed with PBST and detected with a WesternBright HRP substrate detection kit (Advansta). […] The epidermal thickness was calculated from the MTS images in the wounded region. […] Images were acquired by Olympus confocal microscope and analyzed using ImageJ.

[2] = tested on: HAECs; assay: Endothelial cell lumen formation in 3D collagen gel; format: cell-based, human; details: high glucose and TGFβ1
Experimental: A 3D collagen gel model was used to evaluate endothelial cell lumen formation under high glucose and TGFβ1 conditions. Briefly, the collagen gel was formed by mixing 4 mg/ml of rat tail type I collagen solution (Life Technologies), FBS, DMEM, and NaOH. Then 500 μL of the mixture was transferred to a 48-well plate and placed in a 37° C. incubator for 30 minutes to allow gelation. HAECs were then seeded into the collagen gel at a density of 2×10^4 cells/well. TGFβ1 (10 ng/ml) or TGFβ1 (10 ng/ml)/PTβR2I (10 μg/mL) was then added. After three days of culturing, cells were stained with F-actin (Abcam, ab176753) and DAPI (Millipore-Sigma). The constructs were imaged by
Olympus FV1200 confocal microscopy with z-stack mode. The lumen density was calculated from the images.

[3] = tested on: HDF; assay: Cytotoxicity of PTβR2I on dermal fibroblasts; format: cell-based, human; set-up: dose or concentration left out as unconfirmed; details: 1 to 100
[4] = tested on: TGFβ1/p38 pathway; assay: Immunoblotting of p-p38 in HDFs; format: cell-based, human
Experimental: For in vitro tests, protein lysates were collected from HDFs. Pre-cooled cell scrapers were used to detach the cells, and the cells were re-suspended in RIPA lysis buffer with the inhibitor cocktail. For in vivo tests, wound skin tissues were washed three times with pre-cooled DPBS, dissected into small pieces, and re-suspended in RIPA lysis buffer containing protease and phosphatase inhibitors. Homogenization was then performed thereafter with an ultrasonic processor (Cole Parmer). After centrifugation at 12,000 g for 20 min, the supernatants were collected, and protein concentrations were measured using a Bradford protein assay kit (Bio-rad).
The protein samples were separated by 10% Mini-PROTEAN TGX stain-free precast gels (Bio-rad) and transferred onto an immune-blot PVDF membrane. The blots were washed three times with DPBS containing 0.1% Tween 20 (PBST), blocked with 5% milk powder in PBST buffer for 40 min, and incubated with primary antibodies at specific dilutions overnight at 4° C. The primary antibodies included rabbit GAPDH antibody (1:5000, Cell signaling), rabbit anti-a-smooth muscle actin (α-SMA) antibody (1:2000, Cell signaling), rabbit anti-phospho-Smad2(Ser465/467)/Smad3 (Ser423/425) (1:500, Cell signaling), and rabbit anti-phospho-p38 (1:500, Cell signaling). The membranes were washed three times with PBST and incubated with horseradish peroxidase (HRP)-conjugated secondary antibodies (1:2500). Immunoblots were then washed with PBST and detected with a WesternBright HRP substrate detection kit (Advansta). The ChemiDoc XPS+system (Bio-rad) was used to image the blots.

[5] = tested on: HDFs; assay: mRNA expression (RT-PCR), HDFs; format: cell-based, human; details: high glucose and TGFβ1
Experimental: To determine the mRNA expression of the cells (HDFs, HaCaTs, and HAECs) treated with TGFβ1 (10 ng/ml) or TGFβ1 (10 ng/ml)/PTβR2I (10 μg/mL) under high glucose conditions, RNA was extracted using Trizol (Invitrogen) and reverse transcribed using a cDNA synthesis kit (Applied Biosystems). Gene expression was performed by real-time RT-PCR, using Maxima SYBR Green/Fluorescein Master Mix (Thermofisher) and selected primer pairs, shown in Table 1 below. β-actin served as the housekeeping gene. The ΔΔCt method was used for data analysis.

CC(C)C[C@@H]1NC(=O)CNC(=O)[C@@H](NC(=O)[C@@H](N)CCC(=O)O)CSSC[C@@H](C(=O)N[C@@H](CCCCNC(=S)Nc2ccc3c(c2)C(=O)OC32c3ccc(O)cc3Oc3cc(O)ccc32)C(=O)O)NC(=O)[C@H](CC(C)C)NC(=O)[C@H](CCCNC(=N)N)NC(=O)[C@H](Cc2c[nH]c3ccccc23)NC(=O)[C@H](C(C)C)NC(=O)[C@H](CCCNC(=N)N)NC(=O)[C@H](CC(=O)O)NC(=O)[C@@H]2CCCN2C(=O)[C@H](CCCNC(=N)N)NC(=O)CNC(=O)[C@H](C(C)C)NC(=O)[C@@H]2CCCN2C(=O)[C@H](CC(C)C)NC1=O [PTβR2I, ECGLLPVGRPDRVWRLCK-FITC] (H-ECGLLPVGRPDRVWRLCK(FITC)-OH; disulfide 2-17; N-terminus and C-terminus assumed)
expression of p-Smad2/3 in wounded skin ([1]; day 3): downregulated | expressions of p-Smad2/3 and α-SMA in wounded skin ([1]; day 8): without compromising | expression of p-p38 in wounded skin ([1]; days 3 and 8, vs Gel group): downregulated; also recorded: continued to downregulate | lumen density [2]: significantly increased the lumen density | cell viability [3]: no decrease in viability | p-p38 expression ([4]; high glucose, with TGFβ1): significantly downregulated | p-p38 ([4]; normal glucose): did not downregulate | IGF1 expression [5]: significantly upregulated | IL1B mRNA expression [5]: significantly reduced | IL6 mRNA expression [5]: significantly reduced | TNFA mRNA expression [5]: significantly reduced
